Experimental data from US12152240B2, “Permanent epigenetic gene silencing” (Ospedale San Raffaele S.R.L., priority 2014, dated 2024).

Assays:
Type in all cases: cell-based, human
[1] = tested on: eGFP-negative (silenced) AAVS1/TetO7 cells; test: 5-Aza treatment of eGFP-silenced AAVS1/TetO7 cells (flow cytometry); settings: 7 days
Method: In order to understand if DNA methylation was necessary to maintain the repressive state induced by tetR:D3A, the eGFP-cells from the doxy-conditions in FIG. 2D were treated with either 5-Aza-2′-deoxycytidine (5-Aza) or vehicle (i.e. Dimethyl Sulfoxide, DMSO) and then analysed by flow cytometry to measure eGFP expression. 5-Aza is a cytosine analogue that after becoming incorporated into DNA is recognised by DNA methyltransferase as a substrate, establishing a covalent bond that, contrary to cytosine, is not resolved, thus blocking DNMT activity (Issa, J. P. et al. (2005) Nat. Rev. Drug Discov. Suppl. S6-7).
To test activity of the ATRs, the reporter cell lines were transduced with the ATR-expressing Bid.LV at a MOI of 10, or transfected with plasmids or in vitro transcribed mRNAs expressing the ATRs (4D-Nucleofector™ System; Lonza) according to the manufacturer's instruction for K-562, U937 and NIH/3T3, or using the pulse program EW-113 and the SF solution for B-lymphoblastoid cells. […] The AZA-containing media was replaced every day, and the cells were analysed by flow cytometry at day 4 and 7 after treatment. […] The IFN-γ-containing media was replaced every day, and the cells were analysed by flow cytometry at day 2 and 4 after treatment. […] Two weeks after plating, colonies were counted and identified according to morphological criteria and analysed by flow cytometry.

[2] = tested on: B2M gene promoter region, HEK-293T cells; test: B2M silencing in HEK-293T cells (flow cytometry); settings: day 7 upon AZA treatment
Source text: In order to assess if the results obtained with the eGFP reporter system could also be translated to an endogenous gene embedded in its natural epigenetic context, we generated custom-made TALEs targeting the promoter region of the B2-Microglobulin (B2M) gene (the amino acid sequences of these TALEs and the nucleotide sequences of their corresponding binding sites are listed in Table 3), and fused these TALEs to the KRAB, DNMT3A and DNMT3L effector domains (for a schematic of the system refer to FIG. 13A). The spacer length between the first and the second, or between the second and the third TALE is 1 or 20 bp, respectively. We then co-transfected HEK-293T cells with the plasmids encoding for these novel ATRs and analysed the cells by flow cytometry for B2M expression.
Remarkably, up to 80% of the cells treated with all the ATRs permanently lost B2M surface expression. In parallel experiments, we sorted the B2M-negative and the B2M-positive cells, and analysed them for surface expression of MHC-I molecules, which require B2M to be presented on the plasma membrane. […] Then we assessed if the three effector domains were capable of inducing permanent epigenetic silencing also when targeted to the B2M gene via the RNA-guided CRISPR/Cas9 system. […]
We then assessed if these findings also held true with ATRs based on custom-made DNA binding domains. […]

B2M gene, HEK-293T cells = test: B2M, OAS1 and B2M locus gene expression in HEK-293T cells (RT-qPCR)
Source text: Remarkably, up to 80% of the cells treated with all the ATRs permanently lost B2M surface expression. In parallel experiments, we sorted the B2M-negative and the B2M-positive cells, and analysed them for surface expression of MHC-I molecules, which require B2M to be presented on the plasma membrane. […] Then we assessed if the three effector domains were capable of inducing permanent epigenetic silencing also when targeted to the B2M gene via the RNA-guided CRISPR/Cas9 system. To this aim, we fused in frame to a catalytically dead Cas9 (D10A+H840A; dCas9; amino acid sequence listed in Table 4) the KRAB, the DNMT3A or the DNMT3L effector domains (FIG. 13E; top drawings), and designed 11 guide RNAs (gRNAs; nucleotide sequences listed in Table 4) targeting the promoter region of the B2M gene (FIG. 13E; bottom schematic, arrows indicate the location of the CRISPR/dCas9 target sites). […] We then assessed if B2M silencing was resistant to IFN-γ treatment, a potent inducer of B2M expression (Vraetz, T. et al. (1999) Nephrol. Dial. Transplant. 14:2137-43; Gobin, S. J. et al. (2003) Blood 101:3058-64). […]
In order to assess if silencing induced by our ATRs was associated with the deposition of repressive epigenetic marks on the targeted gene, we analysed the epigenetic state of the B2M gene in wild-type and silenced cells. […]

Row | Compound | eGFP expression after 5-Aza treatment ([1]; eGFP- cells silenced with tetR:D3A, 1 μM) | eGFP expression after 5-Aza treatment ([1]; eGFP-negative sorted cells from tetR:K/tetR:D3A conditions) | B2M expression after AZA treatment of previously silenced cells [2] | B2M expression upon IFN-γ treatment (transcriptional and protein level) (B2M gene, HEK-293T cells; 500 U/mL IFN-γ, wild-type or sorted B2M-negative cells) | upregulation of OAS1 gene expression (B2M gene, HEK-293T cells; IFN-γ treatment, all cell types tested (wild-type and B2M-negative)) [fold]
1 | Nc1ncn([C@H]2C[C@H](O)[C@@H](CO)O2)c(=O)n1 [5-Aza, 5-Aza-2′-deoxycytidine] | full reactivation of eGFP expression | completely reactivated eGFP expression | re-expression of the B2M gene | – | –
2 | IFN-γ: a potent inducer of B2M expression | – | – | – | significantly upregulated B2M expression | > 100
